The record followed here is patent US20070197435A1, “Process for the synchronization of ovulation for timed breeding without heat detection” (priority 2006, published 2007).

Assay [1] deals with mature postpartum sows. Description: Intravulvar deslorelin at estrus detection, estrus length, pregnancy rate and live piglets. As to conditions: 50 μg deslorelin acetate intravulvar at first estrus detection. Type of assay: in vivo, swine. As for the experimental part: Sows were assigned randomly in blocks of two to either control or to be injected intravulvar with 50 mcg of deslorelin in SAIB at the time of estrus detection for sows first detected in estrus in the a.m. and 12 hours later for those first detected in estrus in the p.m. Treated animals were bred Al upon detected estrus and again 24 hours later if still in estrus. Controls received a saline injection on first detected estrus behavior estrus detection and were bred according to the farm's normal procedures. Saline sows bred at detected estrus consistent with farm sows. Deslorelin sows injected intravulvar with 1 ml (50 μg deslorelin acetate) at first estrus detection and AI, then AI again if in estrus the next day. Live piglet number 0.6>in Deslorelin versus Saline sows.

Assay [2] relates to ovariectomized estrogen primed gilt model. The experiment in a line: Dose response study of deslorelin in SAIB, LH release determined by RIA. Type of assay: in vivo, swine. To be noted: single injection of 50 mcg deslorelin in SAIB. As for the experimental part: A dose response study was performed using deslorelin in SAIB in an ovariectomized estrogen primed gilt model (Barb, et al. (1999) Proceed. Int'l. Symp. Control. Rel. Bioact. Mater., 26).

Molecules are shown by their SMILES.

For `CCNC(=O)[C@@H]1CCCN1C(=O)[C@H](CCCN=C(N)N)NC(=O)[C@H](CC(C)C)NC(=O)[C@@H](Cc1c[nH]c2ccccc12)NC(=O)[C@H](Cc1ccc(O)cc1)NC(=O)[C@H](CO)NC(=O)[C@H](Cc1c[nH]c2ccccc12)NC(=O)[C@H](Cc1cnc[nH]1)NC(=O)[C@@H]1CCC(=O)N1` [Deslorelin, deslorelin], in assay [1], the “Live piglet number, greater in Deslorelin versus Saline sows (per litter)” value worked out at 0.6. For the same compound, the “Time by which LH returned to base level” value in assay [2] was at most 18 h.
